Results on 18 molecules are retold here after patent US20220282217A1, “COMPOSITIONS AND METHODS FOR PREPARING T CELL COMPOSITIONS AND USES THEREOF” (priority 2019, published 2022).

Assay [1] relates to 293T cells transduced with GATA3 neoORF, expressing the HLA of interest. The experiment in a line: Presentation of GATA3 neoantigens: HLA-eluted peptides by targeted MS/MS (PRM) (Table 14). It is filed as cell-based, human. Here is the method:
To assess whether antigens could be processed and presented from the larger polypeptide context, peptides eluted from HLA molecules isolated from cells expressing the genes of interest were analyzed by tandem mass spectrometry (MS/MS).
Between 50 and 700 million of the transduced cells expressing peptides encoded by the GATA3 neoORF sequence were cultured and peptides were eluted from HLA-peptide complexes using an acid wash. Eluted peptides were then analyzed by targeted MS/MS using PRM. Spectral comparison between peptides derived from GATA3 neoORF and corresponding synthetic peptides were performed to confirm each detection.

The target in assay [2] is HLA-A24.02. The assay can be described thus: Class I MHC peptide binding affinity (displacement of radiolabeled reference peptide). The arrangement: species or system human. Particulars: allele A24.02; read-out: Observed Affinity (IC50; (nM)).
The test system of assay [3] is HLA-A24.02. The assay can be described thus: Class I MHC peptide binding stability (pMHC-I dissociation, 125I-labeled light chain). The arrangement: species or system human. The note with it: allele A24.02.
The target in assay [4] is HLA-A02.01 (Homo sapiens, UniProt P04439, D140Y/D185E/D98H/E176V/E277Q/G131W/G231S/I119V/I121R/I166T/I218V/L300P/L318F/N151K/N90K/P208A/P217A/Q86G/Q94H/R138H/R169H/T345S). The assay can be described thus: Class I MHC peptide binding affinity (displacement of radiolabeled reference peptide). Particulars: (nM)), allele A02.01. In short, it runs like this: (§1)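 Peptides compete against a prebound radiolabeled reference on MHCI over 2 days at several concentrations.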

In another assay the target is HLA-B08.01 (Homo sapiens, UniProt P01889, A93T/A95T/D138N/E176V/E187T/K202T/Q94N/R180D/S35A/V36M/Y33D/Y91F). The assay is described as above. In short, it runs like this: as §1
In the next assay the target is HLA-B07.02 (Homo sapiens, UniProt P01889). The experiment in a line: Class I MHC peptide binding stability (pMHC-I dissociation, 125I-labeled light chain). The arrangement: made in house; host or cells: E. coli. Particulars: Allele B07.02.
Assay [5] has as its target T1, HLA-A02.01 (Homo sapiens, UniProt P04439, D140Y/D185E/D98H/E176V/E277Q/G131W/G231S/I119V/I121R/I166T/I218V/N151K/N90K/P208A/P217A/Q86G/Q94H/R138H/R169H).
T1 construct: made in house; host or cells: E. coli
The assay is described as above. The note with it: allele A02.01.

For a further assay, the target named is HLA-A11.01 (Homo sapiens, UniProt P04439, A114D/D185E/E176A/F33Y/L180Q/S129P/T187R). The assay can be described thus: Class I MHC peptide binding affinity (displacement of radiolabeled reference peptide).
Assay [6] deals with T2, HLA-A03.01 (Homo sapiens, UniProt P04439). The description is as above. The note with it: (nM)), allele A03.01.
The target of assay [7] is T2, HLA-A03.01. The assay can be described thus: Class I MHC peptide binding stability (pMHC-I dissociation, 125I-labeled light chain). The arrangement: made in house; host or cells: E. coli. The note with it: allele A03.01.
Where [8] appears, read: read-out: Observed Affinity (IC50.
Setting [9] is: GATA3 neoORF transduced 293T cells expressing HLA-A*02:01 protein.
The mark [10] stands for this setting: allele A11.01, read-out: Observed Affinity (IC50, (nM)).

Read-outs that look alike come from different tables or passages of the source. Where a SMILES comes first, the peptide text is derived from it.

Take `CC[C@H](C)[C@H](NC(=O)[C@H](CCCCN)NC(=O)[C@H](CO)NC(=O)[C@@H](N)CCC(=O)O)C(=O)N[C@@H](CCSC)C(=O)N[C@@H](Cc1ccccc1)C(=O)N[C@@H](C)C(=O)N[C@H](C(=O)N[C@@H](CC(C)C)C(=O)O)[C@@H](C)O`: the “detected by mass spectrometry (peptide eluted from HLA-peptide complexes)” value (from here on “detected by mass spectrometry”) in assay [1] (GATA3 neoORF transduced 293T cells expressing HLA-B*08:01 protein) is recorded as “detected”.

Turning to `CC(C)C[C@H](NC(=O)[C@H](CO)NC(=O)[C@H](CO)NC(=O)[C@H](CCCNC(=N)N)NC(=O)[C@H](CCC(N)=O)NC(=O)[C@H](CC(C)C)NC(=O)[C@@H](NC(=O)[C@H](C)NC(=O)[C@@H](N)Cc1ccccc1)[C@@H](C)O)C(=O)O`, the “detected by mass spectrometry” value in assay [1] (GATA3 neoORF transduced 293T cells expressing HLA-C*03:03 protein) is “detected”.

What is called IC50 is the concentration at which inhibition is half-maximal. In the case of `CC(C)C[C@H](NC(=O)[C@H](CO)NC(=O)[C@H](CCCCN)NC(=O)[C@H](CC(C)C)NC(=O)[C@@H](NC(=O)[C@H](CO)NC(=O)[C@@H]1CCCN1C(=O)[C@H](CC(C)C)NC(=O)[C@@H](N)Cc1ccccc1)[C@@H](C)O)C(=O)O`, the figures for the IC50 on HLA-A24.02 [2], on HLA-A02.01 [4] (Observed Affinity (IC50) and on HLA-B08.01 were 995 nM, 21 nM and 1970 nM, respectively. The “Stability (T1/2 (h))” value with HLA-A24.02 [3] was found to be 1 h.

`CC[C@H](C)[C@H](NC(=O)[C@H](Cc1ccccc1)NC(=O)[C@H](CCCNC(=N)N)NC(=O)[C@@H]1CCCN1C(=O)[C@H](CC(C)C)NC(=O)[C@@H](N)CO)C(=O)N[C@@H](CC(C)C)C(=O)N[C@@H](CCSC)C(=O)N[C@@H](CCC(=O)O)C(=O)N[C@@H](CC(C)C)C(=O)O`: the IC50 is 2770 nM on HLA-A24.02 [2] and 26 nM at HLA-A02.01 [4] (setting [8]). Besides, the “Stability (T1/2 (h))” value in the assay with HLA-A24.02 [3] is 0.2 h; on HLA-B07.02, 0.4 h; at HLA-A02.01 [5] it was 0.5 h.

In the case of `CSCC[C@H](NC(=O)[C@@H](N)CO)C(=O)N[C@@H](CC(C)C)C(=O)N[C@H](C(=O)NCC(=O)N1CCC[C@H]1C(=O)N1CCC[C@H]1C(=O)N[C@@H](C)C(=O)N[C@@H](CCCNC(=N)N)C(=O)N[C@H](C(=O)O)C(C)C)[C@@H](C)O`, the “Stability (T1/2 (h))” value on HLA-A02.01 [5] amounted to 21.7 h. Also, in [1] (setting [9]), the “detected by mass spectrometry” value is reported as “detected”.

Turning to `CSCC[C@H](NC(=O)[C@H](C)N)C(=O)N[C@H](C(=O)N[C@H](C(=O)N[C@@H](CO)C(=O)N[C@@H](CO)C(=O)N[C@@H](CO)C(=O)N[C@@H](CCC(N)=O)C(=O)N[C@@H](CCCCN)C(=O)O)[C@@H](C)O)[C@@H](C)O` (H-AMTTSSSQK-OH; N-terminus and C-terminus assumed), the IC50 on HLA-A11.01 came to 162 nM; at HLA-A03.01 [6] (Observed Affinity (IC50) it was 8.3 nM.

With `CC(C)C[C@H](NC(=O)[C@@H]1CCCN1C(=O)[C@@H]1CCCN1C(=O)[C@@H](NC(=O)[C@H](CO)NC(=O)[C@H](CC(C)C)NC(=O)[C@H](CC(C)C)NC(=O)[C@H](CCC(=O)O)NC(=O)[C@@H](N)Cc1ccccc1)[C@@H](C)O)C(=O)O` (H-FELLSTPPL-OH; N-terminus and C-terminus assumed), the IC50 on HLA-A02.01 [4] (Observed Affinity (IC50) came to 225 nM; on HLA-B08.01, 3180 nM.

Turning to `CC[C@H](C)[C@H](NC(=O)[C@@H](N)CCCCN)C(=O)N[C@@H](CO)C(=O)N[C@@H](CC(N)=O)C(=O)N[C@@H](Cc1c[nH]c2ccccc12)C(=O)N[C@@H](CO)C(=O)N[C@@H](CC(C)C)C(=O)N[C@@H](CCCCN)C(=O)N[C@@H](CCCCN)C(=O)O` (H-KISNWSLKK-OH; N-terminus and C-terminus assumed), the IC50 was determined as 9.8 nM on HLA-A11.01 (setting [10]) and 8.8 nM at HLA-A03.01 [6] (setting [8]).

Regarding `CC(C)[C@H](NC(=O)[C@@H](N)CCCCN)C(=O)N[C@@H](CO)C(=O)N[C@@H](CCCNC(=N)N)C(=O)N[C@@H](CCC(=O)O)C(=O)N[C@@H](CC(N)=O)C(=O)N[C@H](C(=O)N[C@@H](CO)C(=O)N1CCC[C@H]1C(=O)N[C@@H](CCCCN)C(=O)O)[C@@H](C)O` (H-KVSRENTSPK-OH; N-terminus and C-terminus assumed), on HLA-A03.01 [7], the “Stability (T1/2 (h))” value is recorded as 13.5 h. Also, on HLA-A03.01 [6] (setting [8]), the IC50 was determined as 7 nM.

Turning to `CC(C)C[C@H](N)C(=O)N[C@@H](C)C(=O)N[C@H](C(=O)N[C@@H](CCC(=O)O)C(=O)N[C@@H](CCCCN)C(=O)N[C@@H](CO)C(=O)N[C@@H](CCCNC(=N)N)C(=O)N[C@@H](Cc1c[nH]c2ccccc12)C(=O)N[C@@H](CO)C(=O)O)[C@@H](C)O` (H-LATEKSRWS-OH; N-terminus and C-terminus assumed), the IC50 on HLA-A02.01 [4] (Observed Affinity (IC50) was determined as 61000 nM; at HLA-B08.01 it was 37000 nM.

For `CC(C)C[C@H](N)C(=O)N[C@@H](C)C(=O)N[C@H](C(=O)N[C@@H](CCC(=O)O)C(=O)N[C@@H](CCCCN)C(=O)N[C@@H](CO)C(=O)N[C@@H](CCCNC(=N)N)C(=O)N[C@@H](Cc1c[nH]c2ccccc12)C(=O)N[C@@H](CO)C(=O)NCC(=O)O)[C@@H](C)O` (H-LATEKSRWSG-OH; N-terminus and C-terminus assumed), the IC50 on HLA-A02.01 [4] (Observed Affinity (IC50) was determined as 23300 nM; on HLA-B08.01 it was 46600 nM.

On to `CC(C)C[C@H](NC(=O)[C@@H]1CCCN1C(=O)[C@H](CO)NC(=O)[C@H](CCCNC(=N)N)NC(=O)[C@H](CC(C)C)NC(=O)[C@H](CCCCN)NC(=O)[C@H](CCCCN)NC(=O)[C@@H](N)CC(C)C)C(=O)O` (H-LKKLRSPL-OH; N-terminus and C-terminus assumed), for which the IC50 at HLA-B08.01 turned out to be 0.6 nM.

With `CSCC[C@H](N)C(=O)N[C@@H](CC(C)C)C(=O)N[C@H](C(=O)NCC(=O)N1CCC[C@H]1C(=O)N1CCC[C@H]1C(=O)N[C@@H](C)C(=O)N[C@@H](CCCNC(=N)N)C(=O)N[C@H](C(=O)O)C(C)C)[C@@H](C)O` (H-MLTGPPARV-OH; N-terminus and C-terminus assumed), on HLA-A02.01 [4] (setting [8]), the IC50 is 10.6 nM. The “detected by mass spectrometry” value in [1] (setting [9]) was “detected”.

As for `CSCC[C@H](NC(=O)[C@H](C)NC(=O)[C@@H](N)CO)C(=O)N[C@H](C(=O)N[C@H](C(=O)N[C@@H](CO)C(=O)N[C@@H](CO)C(=O)N[C@@H](CO)C(=O)N[C@@H](CCC(N)=O)C(=O)N[C@@H](CCCCN)C(=O)O)[C@@H](C)O)[C@@H](C)O` (H-SAMTTSSSQK-OH; N-terminus and C-terminus assumed), the results for the IC50 at HLA-A11.01 (setting [10]) and on HLA-A03.01 [6] (setting [8]) were 15.8 nM and 15.7 nM, respectively.

In the case of `CC(C)C[C@H](NC(=O)[C@H](C)NC(=O)[C@@H]1CCCN1C(=O)[C@@H](NC(=O)[C@H](CCCCN)NC(=O)[C@H](CCCCN)NC(=O)[C@H](CC(C)C)NC(=O)[C@@H](N)CO)C(C)C)C(=O)N[C@@H](CCCCN)C(=O)O` (H-SLKKVPALK-OH; N-terminus and C-terminus assumed), the IC50 on HLA-A11.01 (setting [10]) turned out to be 129 nM; at HLA-A03.01 [6] (setting [8]) it was 4.4 nM.

`CC[C@H](C)[C@H](NC(=O)[C@H](CC(N)=O)NC(=O)[C@H](CCSC)NC(=O)[C@H](Cc1c[nH]cn1)NC(=O)[C@H](CC(N)=O)NC(=O)CNC(=O)[C@H](CC(C)C)NC(=O)[C@@H](N)Cc1ccc(O)cc1)C(=O)N[C@@H](C)C(=O)O` (H-YLGNHMNIA-OH; N-terminus and C-terminus assumed): the results for the IC50 at HLA-A02.01 [4] (Observed Affinity (IC50) and on HLA-B08.01 were 117 nM and 872 nM, respectively. Also, at HLA-A02.01 [5], the “Stability (T1/2 (h))” value stood at 0.6 h.

Regarding `CC(C)C[C@H](NC(=O)[C@H](CC(=O)O)NC(=O)[C@H](CO)NC(=O)[C@H](CCC(N)=O)NC(=O)[C@H](CCC(N)=O)NC(=O)[C@H](CCC(N)=O)NC(=O)[C@H](CCC(N)=O)NC(=O)[C@H](CCC(N)=O)NC(=O)[C@@H](N)Cc1ccc(O)cc1)C(=O)O` (H-YQQQQQSDL-OH; N-terminus and C-terminus assumed), the results for the IC50 on HLA-A02.01 [4] (Observed Affinity (IC50) and at HLA-B08.01 were 799 nM and 18900 nM, respectively. For the same molecule, the “Stability (T1/2 (h))” value on HLA-A02.01 [5] is 0.4 h.

As to `CC(C)C[C@H](NC(=O)[C@H](C)NC(=O)[C@H](CC(C)C)NC(=O)[C@H](Cc1c[nH]cn1)NC(=O)[C@@H]1CCCN1C(=O)[C@H](CCC(=O)O)NC(=O)[C@@H]1CCCN1C(=O)[C@H](CC(C)C)NC(=O)[C@@H](N)C(C)C)C(=O)O` [VLPEPHLAL] (H-VLPEPHLAL-OH; N-terminus and C-terminus assumed), the “detected by mass spectrometry” value in [1] (setting [9]) is listed as “detected”.
